# Experimental data: patent US4713381A, “Oxodiazine compounds and pharmaceutical compositions thereof” (Yoshitomi Pharmaceutical Industries, Ltd., priority 1985, dated 1987)
# Like-named read-outs stand apart in the source and are kept apart here.
# Assays:
# platelet aggregation [1] = assay: Effects on platelet aggregation in vitro (ADP-induced, rat platelet-rich plasma, Born type aggregometer); format: cell-based, rats; conditions: 2 min, read-out: 50% inhibitory concentrations (IC50)
# Description: 1. Effects on platelet aggregation in vitro
# Samples of blood are collected from rats weighing 400-450 g and mixed with a 1/10 volume of 3.8% sodium citrate solution. The citrated blood is centrifugated at 200×g for 10 minutes to yield platelet-rich plasma. Test compound is added to platelet-rich plasma thus obtained and maintained at 37° C. for 2 minutes. The platelet aggregation is induced by the addition of 10^-5 M adenosine diphosphate (final concentration) and measured with a Born type six channel aggregometer (Journal of Physiology, vol. 168, pp. 175-198, 1963.
# 50% inhibitory concentrations (IC50, μg/ml) as compared the control group are calculated. Aspirin and ticlopidine are employed as compounds for comparison.
# platelet aggregation [2] = assay: Effects on platelet aggregation ex vivo (ADP-induced, rat platelet-rich plasma 2 hours after oral administration); format: in vivo; conditions: p.o., rats, after 2 hours, 10^-5 M adenosine diphosphate
# Description: 2. Effects on platelet aggregation ex vivo
# Test compound is orally administered to rats weighing 400-450 g. After 2 hours, samples of blood are collected from the rats and mixed with a 1/10 volume of 3.8% sodium citrate solution. The citrated blood is centrifugated at 200×g for 10 minutes to yield platelet-rich plasma. The platelet aggregation is induced by the addition of 10^-5 M adenosine diphosphate (final concentration) and measured with the same aggregometer as described in the above Method.
# Percentage of inhibition as compared with the control group administered with the solvent are calculated.
# [3] = rat platelet-rich plasma, 37° C., 2 minutes, 10^-5 M adenosine diphosphate
IC50 (platelet aggregation [1]; [3]),SMILES,inhibition at 10 mg/kg (platelet aggregation [2]),"IC50 (platelet aggregation [1]; Rattus norvegicus, Platelet)"
3 µg/mL,"Cc1ccc2nc(C)c(C3=NNC(=O)CO3)n2c1 [Example 3, 2-(2,6-dimethylimidazo[1,2-a]pyridin-3-yl)-4,6-dihydro-1,3,4-oxadiazin-5-one]",–,–
–,"Cl.O=C1COC(c2cccn3ccnc23)=NN1 [Example 19, 2-(Imidazo[1,2-a]pyridin-8-yl)-4,6-dihydro-1,3,4-oxadiazin-5-one hydrochloride]",–,1 µg/mL
0.6 µg/mL,"Cc1c(C2=NNC(=O)CO2)sc2nccn12 [Example 17, 2-(3-Methylimidazo[2,1-b]thiazol-2-yl)-4,6-dihydro-1,3,4-oxadiazin-5-one]",54%,–
–,"O=C1COC(c2csc3nccn23)=NN1 [Example 16, 2-(Imidazo[2,1-b]thiazol-3-yl)-4,6-dihydro-1,3,4-oxadiazin-5-one]",60%,–
–,"CC(=O)Oc1ccccc1C(=O)O [Aspirin, reference compound]",–,> 300 µg/mL
> 300 µg/mL,"Clc1ccccc1CN1CCc2sccc2C1 [Ticlopidine, ticlopidine, reference compound]",–,–
1 µg/mL,"Cc1nc2ccccn2c1C1=NNC(=O)CO1 [Example 1, 2-(2-methylimidazo[1,2-a]pyridin-3-yl)-4,6-dihydro-1,3,4-oxadiazin-5-one]",75%,–
0.5 µg/mL,"Cc1nc2sccn2c1C1=NNC(=O)CO1 [Example 5, 2-(6-methylimidazo[2,1-b]thiazol-5-yl)-4,6-dihydro-1,3,4-oxadiazin-5-one]",54%,–
1.9 µg/mL,"Cc1nc2c(C)cccn2c1C1=NNC(=O)CO1 [Example 2, 2-(2,8-dimethylimidazo[1,2-a]pyridin-3-yl)-4,6-dihydro-1,3,4-oxadiazin-5-one]",–,–

SMILES,IC50 (platelet aggregation [1]; [3]),inhibition at 10 mg/kg (platelet aggregation [2]),"IC50 (platelet aggregation [1]; Rattus norvegicus, Platelet)"
"O=C1COC(c2ccc3nccn3c2)=NN1 [Example 18, 2-(Imidazo[1,2-a]pyridin-6-yl)-4,6-dihydro-1,3,4-oxadiazin-5-one]",0.4 µg/mL,65%,–
